Measurements: ChEMBL document CHEMBL1201862, “PubChem BioAssay data set” (2004)
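Results reflect a 48-hour exposure of cells in 96-well plates to compound at five concentrations. Abbreviation: GI50, concentration required for 50% inhibition of growth.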 Calls of active or inactive are those of the source. No stated cut-off is given here; in the data, active = GI50 up to about 1.1 µM and inactive = higher.

How the values were obtained:
Assay in all cases: DTP human tumour cell line panel, 48 h
786-0 = system: 786-0
A498 = system: A498
A549 = system: A549
BT-549 = system: BT-549
CAKI-1 = system: CAKI-1
CCRF-CEM = system: CCRF-CEM
COLO 205 = system: COLO 205
DU-145 = system: DU-145
EKVX = system: EKVX
HCT-116 = system: HCT-116
HCT-15 = system: HCT-15
HL-60 = system: HL-60
HOP-62 = system: HOP-62
HOP-92 = system: HOP-92
HT-29 = system: HT-29
Hs-578T = system: Hs-578T
IGROV-1 = system: IGROV-1
K562 = system: K562
KM12 = system: KM12
LOX IMVI = system: LOX IMVI
M14 = system: M14
MCF7 = system: MCF7
MDA-MB-231 = system: MDA-MB-231
MDA-MB-435 = system: MDA-MB-435
MDA-N = system: MDA-N
MOLT-4 = system: MOLT-4
Malme-3M = system: Malme-3M
NCI-H226 = system: NCI-H226
NCI-H23 = system: NCI-H23
NCI-H460 = system: NCI-H460
NCI-H522 = system: NCI-H522
NCI/ADR-RES = system: NCI/ADR-RES
OVCAR-3 = system: OVCAR-3
OVCAR-4 = system: OVCAR-4
OVCAR-8 = system: OVCAR-8
PC-3 = system: PC-3
RPMI-8226 = system: RPMI-8226
RXF 393 = system: RXF 393
SF-268 = system: SF-268
SF-295 = system: SF-295
SF-539 = system: SF-539
SK-MEL-28 = system: SK-MEL-28
SK-OV-3 = system: SK-OV-3
SN12C = system: SN12C
SNB-19 = system: SNB-19
SNB-75 = system: SNB-75
SR = system: SR
SW-620 = system: SW-620
T47D = system: T47D
TK-10 = system: TK-10
U-251 = system: U-251
UACC-257 = system: UACC-257
UACC-62 = system: UACC-62
UO-31 = system: UO-31
ACHN = system: ACHN
OVCAR-5 = system: OVCAR-5
SK-MEL-2 = system: SK-MEL-2
SK-MEL-5 = system: SK-MEL-5

Cc1ccc(-c2cc(O)c3nc4ccccc4n3c2)cc1
GI50 (786-0): > 100 µM (inactive) | GI50 (A498): > 100 µM (inactive) | GI50 (A549): > 100 µM (inactive) | GI50 (BT-549): > 100 µM (inactive) | GI50 (CAKI-1): > 100 µM (inactive) | GI50 (CCRF-CEM): > 100 µM (inactive) | GI50 (COLO 205): > 100 µM (inactive) | GI50 (DU-145): > 100 µM (inactive) | GI50 (EKVX): > 100 µM (inactive) | GI50 (HCT-116): > 100 µM (inactive) | GI50 (HCT-15): > 100 µM | GI50 (HL-60): > 100 µM (inactive) | GI50 (HOP-62): > 100 µM (inactive) | GI50 (HOP-92): > 100 µM (inactive) | GI50 (HT-29): > 100 µM (inactive) | GI50 (Hs-578T): > 100 µM (inactive) | GI50 (IGROV-1): > 100 µM (inactive) | GI50 (K562): > 100 µM (inactive) | GI50 (KM12): > 100 µM (inactive) | GI50 (LOX IMVI): 75 µM (inactive) | GI50 (M14): > 100 µM (inactive) | GI50 (MCF7): > 100 µM (inactive) | GI50 (MDA-MB-231): > 100 µM (inactive) | GI50 (MDA-MB-435): 5.27 µM (inactive) | GI50 (MDA-N): > 100 µM (inactive) | GI50 (MOLT-4): > 100 µM (inactive) | GI50 (Malme-3M): > 100 µM (inactive) | GI50 (NCI-H226): > 100 µM (inactive) | GI50 (NCI-H23): > 100 µM (inactive) | GI50 (NCI-H460): 60.8 µM (inactive) | GI50 (NCI-H522): 7.38 µM (inactive) | GI50 (NCI/ADR-RES): > 100 µM (inactive) | GI50 (OVCAR-3): > 100 µM (inactive) | GI50 (OVCAR-4): > 100 µM (inactive) | GI50 (OVCAR-8): 54.3 µM (inactive) | GI50 (PC-3): > 100 µM (inactive) | GI50 (RPMI-8226): > 100 µM (inactive) | GI50 (RXF 393): > 100 µM (inactive) | GI50 (SF-268): > 100 µM (inactive) | GI50 (SF-295): > 100 µM (inactive) | GI50 (SF-539): > 100 µM (inactive) | GI50 (SK-MEL-28): > 100 µM (inactive) | GI50 (SK-OV-3): > 100 µM (inactive) | GI50 (SN12C): > 100 µM (inactive) | GI50 (SNB-19): > 100 µM (inactive) | GI50 (SNB-75): > 100 µM (inactive) | GI50 (SR): > 100 µM (inactive) | GI50 (SW-620): > 100 µM (inactive) | GI50 (T47D): > 100 µM (inactive) | GI50 (TK-10): > 100 µM (inactive) | GI50 (U-251): > 100 µM (inactive) | GI50 (UACC-257): > 100 µM (inactive) | GI50 (UACC-62): > 100 µM (inactive) | GI50 (UO-31): > 100 µM (inactive)

O=[N+]([O-])c1ccc(C(Nc2ccccc2)P(c2ccccc2)c2ccccc2)cc1 (stereo unspecified)
GI50 (786-0): > 100 µM (inactive) | GI50 (A498): > 100 µM (inactive) | GI50 (A549): > 100 µM (inactive) | GI50 (ACHN): > 100 µM (inactive) | GI50 (BT-549): > 100 µM (inactive) | GI50 (CAKI-1): > 100 µM (inactive) | GI50 (COLO 205): > 100 µM (inactive) | GI50 (DU-145): > 100 µM (inactive) | GI50 (EKVX): > 100 µM (inactive) | GI50 (HCT-116): 8.81 µM (inactive) | GI50 (HCT-15): > 100 µM | GI50 (HL-60): > 100 µM (inactive) | GI50 (HOP-62): 67.3 µM (inactive) | GI50 (HOP-92): > 100 µM (inactive) | GI50 (HT-29): > 100 µM (inactive) | GI50 (Hs-578T): > 100 µM (inactive) | GI50 (IGROV-1): > 100 µM (inactive) | GI50 (K562): 22.5 µM (inactive) | GI50 (KM12): > 100 µM (inactive) | GI50 (LOX IMVI): > 100 µM (inactive) | GI50 (M14): > 100 µM (inactive) | GI50 (MCF7): > 100 µM (inactive) | GI50 (MDA-MB-231): > 100 µM (inactive) | GI50 (MDA-MB-435): > 100 µM (inactive) | GI50 (MDA-N): > 100 µM (inactive) | GI50 (MOLT-4): 24.1 µM (inactive) | GI50 (Malme-3M): > 100 µM (inactive) | GI50 (NCI-H226): > 100 µM (inactive) | GI50 (NCI-H23): > 100 µM (inactive) | GI50 (NCI-H460): > 100 µM (inactive) | GI50 (NCI-H522): > 100 µM (inactive) | GI50 (NCI/ADR-RES): > 100 µM (inactive) | GI50 (OVCAR-4): > 100 µM (inactive) | GI50 (OVCAR-5): > 100 µM (inactive) | GI50 (OVCAR-8): > 100 µM (inactive) | GI50 (PC-3): > 100 µM (inactive) | GI50 (RXF 393): > 100 µM (inactive) | GI50 (SF-268): > 100 µM (inactive) | GI50 (SF-295): 44.7 µM (inactive) | GI50 (SF-539): > 100 µM (inactive) | GI50 (SK-MEL-28): > 100 µM (inactive) | GI50 (SK-MEL-2): > 100 µM (inactive) | GI50 (SK-MEL-5): > 100 µM (inactive) | GI50 (SK-OV-3): > 100 µM (inactive) | GI50 (SN12C): > 100 µM (inactive) | GI50 (SNB-19): > 100 µM (inactive) | GI50 (SNB-75): > 100 µM (inactive) | GI50 (SR): > 100 µM (inactive) | GI50 (SW-620): > 100 µM (inactive) | GI50 (T47D): > 100 µM (inactive) | GI50 (TK-10): > 100 µM (inactive) | GI50 (U-251): > 100 µM (inactive) | GI50 (UACC-257): > 100 µM (inactive) | GI50 (UACC-62): > 100 µM (inactive) | GI50 (UO-31): > 100 µM (inactive)

COc1ccc(N2C(=O)C3c4[nH]c5ccccc5c4C4CCC(c5ccccc5)CC4C3C2=O)cc1 (stereo unspecified)
GI50 (786-0): 7.76 µM (inactive) | GI50 (A498): 29 µM (inactive) | GI50 (A549): 26.5 µM (inactive) | GI50 (ACHN): 12.3 µM (inactive) | GI50 (BT-549): 31.4 µM (inactive) | GI50 (CAKI-1): 17.4 µM (inactive) | GI50 (CCRF-CEM): 6 µM (inactive) | GI50 (COLO 205): > 40.4 µM (inactive) | GI50 (DU-145): 57.3 µM (inactive) | GI50 (EKVX): 25.1 µM (inactive) | GI50 (HCT-116): > 39.8 µM (inactive) | GI50 (HCT-15): 36 µM | GI50 (HOP-62): 7.28 µM (inactive) | GI50 (HOP-92): 16.1 µM (inactive) | GI50 (HT-29): > 57.5 µM (inactive) | GI50 (Hs-578T): 5.74 µM (inactive) | GI50 (IGROV-1): 30.8 µM (inactive) | GI50 (K562): 11.2 µM (inactive) | GI50 (KM12): > 70.5 µM (inactive) | GI50 (LOX IMVI): > 32.5 µM (inactive) | GI50 (M14): 30.5 µM (inactive) | GI50 (MCF7): 39 µM (inactive) | GI50 (MDA-MB-231): 10.9 µM (inactive) | GI50 (MDA-MB-435): > 50.5 µM (inactive) | GI50 (MDA-N): 52.8 µM (inactive) | GI50 (MOLT-4): 26.6 µM (inactive) | GI50 (Malme-3M): 3.38 µM (inactive) | GI50 (NCI-H226): > 45.7 µM (inactive) | GI50 (NCI-H23): 19.8 µM (inactive) | GI50 (NCI-H460): 10.3 µM (inactive) | GI50 (NCI-H522): 10.2 µM (inactive) | GI50 (NCI/ADR-RES): > 34.2 µM (inactive) | GI50 (OVCAR-3): > 64 µM (inactive) | GI50 (OVCAR-4): 8.87 µM (inactive) | GI50 (OVCAR-5): 45.1 µM (inactive) | GI50 (OVCAR-8): 17.3 µM (inactive) | GI50 (PC-3): 36.2 µM (inactive) | GI50 (RPMI-8226): 18.5 µM (inactive) | GI50 (RXF 393): 10.2 µM (inactive) | GI50 (SF-268): 10.4 µM (inactive) | GI50 (SF-295): 22.9 µM (inactive) | GI50 (SF-539): 1.48 µM (inactive) | GI50 (SK-MEL-28): > 54.6 µM (inactive) | GI50 (SK-MEL-2): 23.4 µM (inactive) | GI50 (SK-MEL-5): 26.1 µM (inactive) | GI50 (SK-OV-3): 20.2 µM (inactive) | GI50 (SN12C): 28.5 µM (inactive) | GI50 (SNB-19): 12.5 µM (inactive) | GI50 (SNB-75): 6.04 µM (inactive) | GI50 (SR): 0.424 µM (active) | GI50 (SW-620): > 32.7 µM (inactive) | GI50 (T47D): > 66.4 µM (inactive) | GI50 (TK-10): 12.8 µM (inactive) | GI50 (U-251): 5.92 µM (inactive) | GI50 (UACC-257): 48.4 µM (inactive) | GI50 (UACC-62): 24.8 µM (inactive) | GI50 (UO-31): 46.8 µM (inactive)
